This is an account of results in paper PMC5623054, “Cloning and Functional Characterization of Octβ2-Receptor and Tyr1-Receptor in the Chagas Disease Vector, Rhodnius prolixus” (Frontiers in Physiology, 2017).

A word on the EC50: it is the concentration needed to bring the measured effect to its halfway point. A low value points to higher potency in that assay.

What all share (type): cell-based
For test [1], the target named is T1, RhoprTyr1-R (Rhodnius prolixus, UniProt A0A291L8I9).
T1 construct: full ORF (455 amino acids; GenBank MF377527) transiently expressed in HEK293/CNG cells
T1 sequence (A0A291L8I9 1-455): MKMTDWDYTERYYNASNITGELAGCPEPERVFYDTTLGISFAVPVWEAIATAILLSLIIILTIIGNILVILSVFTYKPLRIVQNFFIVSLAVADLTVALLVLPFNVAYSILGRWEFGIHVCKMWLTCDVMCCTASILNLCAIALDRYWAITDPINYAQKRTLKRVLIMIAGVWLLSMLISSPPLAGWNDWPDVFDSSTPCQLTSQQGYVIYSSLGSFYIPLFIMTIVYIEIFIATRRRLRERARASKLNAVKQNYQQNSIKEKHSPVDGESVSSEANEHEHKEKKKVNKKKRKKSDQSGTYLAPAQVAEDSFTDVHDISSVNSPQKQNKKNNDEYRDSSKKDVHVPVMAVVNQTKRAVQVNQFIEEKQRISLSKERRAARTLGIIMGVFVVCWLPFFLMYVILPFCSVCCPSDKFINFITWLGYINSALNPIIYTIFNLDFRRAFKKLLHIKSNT
The test can be described thus: aequorin bioluminescence Ca2+ assay in transfected HEK293/CNG cells, dose-response (agonist).

Test [2] deals with T2, RhoprOctβ2-R (Rhodnius prolixus, UniProt A0A291L8J3).
T2 construct: full ORF (447 amino acids; GenBank MF377526) transiently expressed in HEK293/CNG cells
T2 sequence (A0A291L8J3 1-447): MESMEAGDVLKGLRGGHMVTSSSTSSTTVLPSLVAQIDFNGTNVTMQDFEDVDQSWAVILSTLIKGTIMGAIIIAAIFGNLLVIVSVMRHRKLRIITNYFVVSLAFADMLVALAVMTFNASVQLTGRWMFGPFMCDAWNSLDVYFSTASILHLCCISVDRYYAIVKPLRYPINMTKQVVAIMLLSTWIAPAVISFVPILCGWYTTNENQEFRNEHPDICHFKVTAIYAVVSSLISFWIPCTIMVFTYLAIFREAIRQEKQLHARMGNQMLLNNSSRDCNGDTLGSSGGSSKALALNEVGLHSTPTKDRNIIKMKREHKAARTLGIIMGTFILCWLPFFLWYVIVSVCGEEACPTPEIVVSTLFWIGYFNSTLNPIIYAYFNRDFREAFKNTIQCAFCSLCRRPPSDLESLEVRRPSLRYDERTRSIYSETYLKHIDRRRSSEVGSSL
Kind of test: aequorin bioluminescence Ca2+ assay in transfected HEK293/CNG cells, dose-response (full agonist).

The target of test [3] is T2, RhoprOctβ2-R. The test can be described thus: aequorin bioluminescence Ca2+ assay in transfected HEK293/CNG cells, dose-response (partial agonist).
In test [4] the target is T2, RhoprOctβ2-R. The test can be described thus: antagonism of octopamine-induced aequorin luminescence in HEK293/CNG cells, single dose […].
For test [5], the target named is T2, RhoprOctβ2-R. Kind of test: partial antagonism of octopamine-induced aequorin luminescence in HEK293/CNG cells, single dose […].
Test [6] has as its target T1, RhoprTyr1-R. Kind of test: antagonism of tyramine-induced aequorin luminescence in HEK293/CNG cells, single dose […].

Consider `NCC(O)c1ccc(O)cc1` (stereo not shown) [OA, octopamine], for which the EC50 was determined as 6880 nM on RhoprTyr1-R [1] and 367 nM on RhoprOctβ2-R [2]. With `NCCc1ccc(O)cc1` [TA, tyramine], the EC50 stood at 51.7 nM on RhoprTyr1-R [1] and 3850 nM at RhoprOctβ2-R [3]. As to `CN(C)Cc1c[nH]c2ccccc12` [gramine], at RhoprOctβ2-R [4], the “antagonism of octopamine-induced aequorin luminescence in HEK293/CNG cells, sing” value was “Phentolamine and gramine significantly reduced octopamine-induced receptor activation”. On to `CCN(CC)CCNC(=O)c1cc(Cl)c(N)cc1OC` [metoclopramide], for which, on RhoprOctβ2-R [5], the “partial antagonism of octopamine-induced aequorin luminescence in HEK293/CNG cel” value is recorded as “RhoprOctβ2-R was antagonized by phentolamine > gramine > metoclopramide”. Take `CC(COc1ccccc1)N(CCCl)Cc1ccccc1` (stereo not shown) [phenoxybenzamine]: the “antagonism of tyramine-induced aequorin luminescence in HEK293/CNG cells, single” value on RhoprTyr1-R [6] was “notably yohimbine and phenoxybenzamine, reduced the tyramine-induced activation of the RhoprTyr1-R”.
